# Entries after “also recorded” stand apart in the source; their conditions may differ.
# Columns and labels:
# CT-26 = assay: Syngeneic murine colon carcinoma BALB/c model with MSS cell line CT-26, survival and response; conditions: mouse, in vivo
# Protocol: In vivo studies. […] Six to seven weeks old male BALB/c mice were purchased from Taconic. […] 100 μL was injected subcutaneously into the rear flanks. Once tumor volume reached at least 100 mm3, mice were randomly assigned to one of four groups (three mice/group): vehicle, ONC212, 2-DG, combination of ONC212 p2-DG. ONC212 was delivered by oral gavage at the dosage of 50 mg/kg in a solution of 70% phosphate-buffered serum, 10% DMSO, and 20% Kolliphor EL (Sigma-Aldrich, catalog no. C5135), three times per week. The treatment continued until mice developed signs of toxicity or discomfort from excessive tumor growth. Mice were weighed once a week to monitor signs of drug toxicity. The length (L) and width (VV) of the masses were measured three times per week with a digital caliper. The tumor volume was calculated applying the formula: 0.5LW2.
# To evaluate the potential for 9-ING-41 to increase efficacy of immune checkpoint blockade, the inventors used a syngeneic murine colon carcinoma BALB/c murine model with a microsatellite stable (MSS) cell line CT-26.
# [1] = test system: healthy donor-derived CD8+ T cells; assay: Cytokine profile of immune cell culture supernatant, donor-derived CD8+ T cells; assay type: cell-based, Human; conditions: 1 μM, 48 hours
# Protocol: Isolation of donor derived CD8+ T cells. An Easy Step Human CD8+ T Cell Isolation Kit was used to isolated CD8+ T cells from a donor PBMC sample via negative selection (Cat #, 17913, Stem Cell Technologies, Vancouver, Canada).
# (§1) Collection of cell culture supernatants used in cytokine measurements. Cells were plated at 3.5×10^4 cells in a 48-well plate (Thermo Fisher Scientific, Waltham, MA, USA) in complete medium and incubated at 37° C. with 5% CO2. At twenty-four hours after plating, almost all the tumor cells were adherent to the bottom of the flask and the complete medium was replaced with drug-containing medium. Subsequently, the culture supernatants were collected after forty-eight hours of incubation and were frozen at −80° C. until the measurement of cytokines was performed. The day of analysis, samples were thawed and centrifuged to remove cellular debris.
# (§2) Human cytokine profiling. Human cell line culture supernatants were analyzed using an R&D systems Human Premixed Multi-Analyte Kit (R&D Systems, Inc., Minneapolis, MN, USA) and a Luminex 200 Instrument (LX200-XPON-RUO, Luminex Corporation, Austin, TX, USA) according to the manufacturer's instructions. […]
# (§3) 9-ING-41 increases secreted cytotoxic proteins IFN-v, Granzyme B, and TRAIL in immune cells. […] Here, the inventors determined how 9-ING-41 treatment impacts the immune cell cytokinome. […]
# TALL-104 cells = assay: Cytokine profile of immune cell culture supernatant, TALL-104; assay type: cell-based, Human; conditions: 1 μM, 48 hours
# Protocol: as §1, §2, §3
# advanced malignancies = conditions: cited from earlier work
# TALL-104 T cells = assay: Western blot analysis, TALL-104; assay type: cell-based, Human
# Protocol: (§4) Western blot analysis. Cells were plated in a 6-well plate and incubated overnight before the spent media was replaced with drugged media. Drug treatment lasted for indicated durations. Protein was extracted using radioimmunoprecipitation (RIPA) assay buffer (Cat #R0278, Sigma-Aldrich, St. Louis, MO) containing cOmplete™ Mini, EDTA-free Protease Inhibitor Cocktail (Cat #4693159001, Roche, Basel, Switzerland). Denaturing sample buffer was added, samples were boiled at 95 degrees for 10 minutes. An equal amount of protein lysate was electrophoresed through NuPAGE™ 4 to 12%, Bis-Tris, 1.5 mm, Mini Protein Gels (Invitrogen, Waltham, MA, USA) then transferred to PVDF membranes. The PVDF membrane was blocked with 5% non-fat milk (Sigma-Aldrich, St. Louis, MO, USA) in 1× TTBS. Primary antibodies were incubated with the transferred PVDF membrane in blocking buffer at 4° C. overnight. Secondary antibodies used included goat anti-rabbit IgG (H+L) secondary antibody, HRP (Cat #31460, Invitrogen, Waltham, MA, USA) and goat anti-mouse IgG (H+L) secondary antibody, HRP (Cat #31430, Invitrogen, Waltham, MA, USA). Signal was detected using a Syngene Imaging System.
# 9-ING-41 treatment decreases survival factor expression while increasing PD-L1 levels in colorectal cancer cell lines. To elucidate the mechanism behind the differential effects of 9-ING-41 on either colorectal cancer or immune cells in co-culture and cytokine profiling assays, the inventors performed Western blot analyses on tumor and immune cells treated with 9-ING-41 over a 72-hour time course.
# Treating cells from colorectal cancer cell lines with 1 μM 9-ING-41 decreases Surivin, NF-κB p65, and IκBα while increasing PD-L1 levels in, 9-ING-41 treatment of immune cells increases NIK. Western blot analysis of HCT-116 and HT-29 colorectal cancer cells for expression of indicated proteins after increasing durations of 9-ING-41 treatment (0-72 hours). Western blot analysis of TALL-104 T cells for expression of indicated proteins after increasing durations of 9-ING-41 treatment (0-72 hours). […]
# [2] = test system: NK-92 natural killer cells; assay: Western blot analysis of Mcl-1, NK-92; assay type: cell-based, Human; conditions: through the 48-hour endpoint
# Protocol: as §4
# Treating cells from colorectal cancer cell lines with 1 μM 9-ING-41 decreases Surivin, NF-κB p65, and IκBα while increasing PD-L1 levels in, 9-ING-41 treatment of immune cells increases NIK. […]
smiles,measurement,setting,value
Cn1cc(C2=C(c3coc4ccc(F)cc34)C(=O)NC2=O)c2cc3c(cc21)OCO3 [9-ING-41],survival compared to control group,CT-26,statistically significant improved survival; also recorded: prolonged the survival
same,"all three cytotoxic molecules (IFN-γ, granzyme B, TRAIL)",[1],increases
same,"IFN-γ, granzyme B, and TRAIL concentrations",TALL-104 cells,increases
same,clinical response,"advanced malignancies; a patient with BRAF V600E metastatic melanoma, previously treated",complete response
same,increased infection or opportunistic/unusual infections,advanced malignancies; even in patients with extensive prior cytotoxic therapy,no evidence of increased infection
same,attributable Grade 3 or 4 serious adverse events,"advanced malignancies; monotherapy and combination with standard chemotherapy, NCT03678883",without attributable Grade 3 or 4 serious adverse events
same,myelosuppression,advanced malignancies; patients,not associated with myelosuppression of any degree
same,safety profile,advanced malignancies; preliminary results from ongoing clinical trials,excellent safety profile devoid of myelosuppressive and immunosuppressive effects
same,PD-1 expression,TALL-104 T cells; 0-72 hours,decreased
same,Survivin and NIK,TALL-104 T cells; 0-72 hours,surprising increases
same,"NF-KB, IKK β, IKBα, pIKBα, and Bcl-2",TALL-104 T cells; as treatment duration increased,no significant changes
same,Mcl-1 protein expression,[2],did not observe a significant decrease
